Measurements reported in US8192962B2, “Processes for detecting toxic substances” (Daikin Industries, Ltd., priority 2001, dated 2012).

Assays:
[1] = test system: Detoxification protein genes; assay: DNA chip mRNA expression in yeast, detoxification protein genes (Table 8); type: cell-based, Saccharomyces cerevisiae S288C
Method: (§1) Yeast (Saccharomyces cerevisiae S288C (α SUC2mal mel gap2 CUP1)) were incubated at 25° C. on YPD medium (yeast extract 1%, polypepton 2%, glucose 2%). One of toxic chemical substances was added to the cells at logarithmic growth phase, and the cells were further incubated for two hours. Cells were cultured without any chemical substance in the same condition, and were used as control. Concentrations of the chemical substances were defined to inhibit the growth of the yeast but not lead to death.
(§2) After completion of the incubation, the culture was centrifuged to collect the cells. To the cells, sodium acetate buffer (50 mM sodium acetate, 10 mM EDTA, 1% SDS) was added, and the mixture was shaken at 65° C. for five minutes, followed by returning to room temperature, and obtaining the supernatant, of which the procedures were repeated two times. To the supernatant, ½ amount of a solution of phenol/chloroform was added, and the mixture was centrifuged to give a supernatant, which was added with an equal amount of chloroform, and the mixture was centrifuged to give a supernatant. To the supernatant, an equal amount of isopropanol containing 0.3 M sodium acetate was added, and the mixture was allowed to stand at room temperature for 30 minutes, after which the mixture was centrifuged to give a sediment of the whole RNAs. Seventy % ethanol was added to the sediment, and the mixture was again centrifuged to give a sediment, which was then dried and dissolved in water. mRNA was isolated from the whole RNAs as followings. In view of the fact that a poly A chain is attached to the 3′ terminus of mRNA, a polynucleotide having a poly T structure which was immobilized on the surface of latex beads was used to trap the mRNA, and then the mRNA was washed and eluted with spine column (Oligotex-dT30<Super>mRNA Purification Kit, Takara). Reverse transcription of the mRNA was conducted with a reverse transcriptase (Super Script II Reverse Transcriptase; catalogue No. 18064-014, GibcoBRL) using fluorescence-labeled nucleotides to give cDNAs that were introduced with Cy3-dUTP or Cy5-dUTP during the reverse transcription.
(§3) The labeled cDNAs were dissolved in TE buffer (10mM Tris-HCl/1 mM EDTA, pH8.0), and the solution was dropped on the DNA chip containing the whole genes of yeast (DNA Chip Research Inc. Japan) so that the cDNAs were hybridized on the DNA chip at 65° C. for over 12 hours. The fluoresces intensity of the DNA chip was read with a scanner, and the ratio relative to the fluorescence intensity resulting from the absence of chemical substance was estimated as the following, which is shown in Tables 1 to 9: […]

DNA repair protein genes = assay: DNA chip mRNA expression in yeast, DNA repair protein genes (Table 3); type: cell-based, Saccharomyces cerevisiae S288C; details: incubated two hours, concentrations as in the 1st table
Method: as §1, §2, §3

Measured: The level of expressed mRNA in the presence of chemical substance/The level of expressed mRNA in the absence of chemical substance

[Cl][Cd][Cl] [(2), CdCl2]
1.7: [1]; yeast gene YLR046C | [1]; yeast gene YMR038C | [1]; yeast gene YOR031W | [1]; yeast gene YPR200C | DNA repair protein genes; yeast gene YMR035W | DNA repair protein genes; yeast gene YMR096W
1.4: [1]; yeast gene YBR244W | [1]; yeast gene YDR256C | [1]; yeast gene YHR048W | [1]; yeast gene YKR066C | [1]; yeast gene YLR043C | DNA repair protein genes; yeast gene YIL153W | DNA repair protein genes; yeast gene YKL145W | DNA repair protein genes; yeast gene YPL194W
1.5: DNA repair protein genes; yeast gene YLR103C
1.0: [1]; yeast gene YFL050C | [1]; yeast gene YOR251C | [1]; yeast gene YOR273C | DNA repair protein genes; yeast gene YBR073W | DNA repair protein genes; yeast gene YCR014C | DNA repair protein genes; yeast gene YDR054C | DNA repair protein genes; yeast gene YJR052W | DNA repair protein genes; yeast gene YMR072W | DNA repair protein genes; yeast gene YMR284W | DNA repair protein genes; yeast gene YNL312W
0.7: [1]; yeast gene YBR145W | [1]; yeast gene YMR015C | [1]; yeast gene YPL163C | DNA repair protein genes; yeast gene YPL164C
0.9: [1]; yeast gene YKL064W | [1]; yeast gene YKR105C | [1]; yeast gene YLL028W | [1]; yeast gene YOR153W | DNA repair protein genes; yeast gene YGR258C | DNA repair protein genes; yeast gene YLR233C | DNA repair protein genes; yeast gene YML032C | DNA repair protein genes; yeast gene YOL043C
2.8: [1]; yeast gene YBL064C | [1]; yeast gene YCR083W
4.2: [1]; yeast gene YLL060C
2.2: [1]; yeast gene YML028W | DNA repair protein genes; yeast gene YNL250W
2.3: [1]; yeast gene YCL035C | DNA repair protein genes; yeast gene YDL017W
2.4: [1]; yeast gene YBR008C | [1]; yeast gene YGR197C | [1]; yeast gene YNL239W | DNA repair protein genes; yeast gene YJL026W
2.5: [1]; yeast gene YDR513W | [1]; yeast gene YNL241C
9.1: DNA repair protein genes; yeast gene YBL019W
6.9: [1]; yeast gene YHR008C
1.6: [1]; yeast gene YGR138C | DNA repair protein genes; yeast gene YEL019C
4.4: [1]; yeast gene YHL040C | [1]; yeast gene YHL047C
0.8: [1]; yeast gene YKR106W | DNA repair protein genes; yeast gene YGL163C | DNA repair protein genes; yeast gene YGL249W | DNA repair protein genes; yeast gene YIL143C | DNA repair protein genes; yeast gene YLR288C | DNA repair protein genes; yeast gene YOR386W | DNA repair protein genes; yeast gene YPL022W | DNA repair protein genes; yeast gene YPR025C
2.7: [1]; yeast gene YDR453C
4.5: [1]; yeast gene YNL259C
5.1: DNA repair protein genes; yeast gene YDL059C | DNA repair protein genes; yeast gene YFL014W
11.6: DNA repair protein genes; yeast gene YNL213C
59.9: [1]; yeast gene YLL057C
1.9: [1]; yeast gene YJL101C | DNA repair protein genes; yeast gene YAR007C | DNA repair protein genes; yeast gene YGL127C
1.3: [1]; yeast gene YML116W | DNA repair protein genes; yeast gene YHR164C | DNA repair protein genes; yeast gene YIL036W | DNA repair protein genes; yeast gene YNL261W
15.7: [1]; yeast gene YCL069W
1.2: [1]; yeast gene YDL100C | [1]; yeast gene YGL013C | [1]; yeast gene YGR088W | [1]; yeast gene YGR224W | DNA repair protein genes; yeast gene YER162C | DNA repair protein genes; yeast gene YGR231C | DNA repair protein genes; yeast gene YJR046W | DNA repair protein genes; yeast gene YML058W
2.0: [1]; yeast gene YDL168W | [1]; yeast gene YKL026C | DNA repair protein genes; yeast gene YDL200C | DNA repair protein genes; yeast gene YEL037C
2.1: [1]; yeast gene YHR053C
1.8: [1]; yeast gene YHR055C | [1]; yeast gene YJR104C | DNA repair protein genes; yeast gene YBR272C | DNA repair protein genes; yeast gene YGL091C | DNA repair protein genes; yeast gene YOR005C
3.5: [1]; yeast gene YIR038C
0.6: [1]; yeast gene YEL027W | [1]; yeast gene YOR247W
3.1: [1]; yeast gene YBR293W | [1]; yeast gene YER185W | [1]; yeast gene YGR209C | DNA repair protein genes; yeast gene YIL072W
4.0: [1]; yeast gene YOL158C
1.1: [1]; yeast gene YDR538W | [1]; yeast gene YGL254W | [1]; yeast gene YIR002C | DNA repair protein genes; yeast gene YAL015C | DNA repair protein genes; yeast gene YDR369C | DNA repair protein genes; yeast gene YGL058W | DNA repair protein genes; yeast gene YGR180C | DNA repair protein genes; yeast gene YIR002C
3.8: [1]; yeast gene YEL065W
